# Activity calls are given as the source filed them.
# Experiments:
# [1] = biological target: T1, Intestinal-type alkaline phosphatase (Homo sapiens, UniProt P09923); experiment: human IAP activators, dose response, biochemical, luminescent, uHTS hits, set 2 (AID 488817); type: functional;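 also: potency of activators that raise enzyme activity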
# [2] = biological target: T2, Heat shock factor protein 1 (Mus musculus, UniProt P38532); experiment: inhibition of MG132-induced HSE-luciferase signal, confirmation, cell-based, NIH3T3, luminescence, dose retest (AID 2382); type: functional;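 also: NIH3T3 fibroblasts with HSF1-driven luciferase reporter stressed by proteasome inhibitor MG132; luminescence from HSF1-driven luciferase expression after 8 hours of MG132 stress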
# T2 sequence (P38532 whole entry): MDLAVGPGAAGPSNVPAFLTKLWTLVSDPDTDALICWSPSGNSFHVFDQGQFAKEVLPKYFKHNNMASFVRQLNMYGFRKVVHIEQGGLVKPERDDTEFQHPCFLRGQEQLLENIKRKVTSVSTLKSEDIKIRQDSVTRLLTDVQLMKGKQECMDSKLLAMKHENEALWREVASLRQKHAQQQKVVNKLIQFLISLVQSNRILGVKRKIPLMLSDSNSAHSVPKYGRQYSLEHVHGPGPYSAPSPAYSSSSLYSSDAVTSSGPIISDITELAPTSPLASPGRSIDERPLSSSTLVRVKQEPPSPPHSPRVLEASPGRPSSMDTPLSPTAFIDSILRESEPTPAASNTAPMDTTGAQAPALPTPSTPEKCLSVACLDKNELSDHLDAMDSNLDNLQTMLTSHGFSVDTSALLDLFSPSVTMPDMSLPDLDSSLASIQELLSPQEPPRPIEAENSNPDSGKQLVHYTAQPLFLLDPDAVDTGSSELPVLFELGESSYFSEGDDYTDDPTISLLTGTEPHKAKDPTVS
# [3] = biological target: T3, Alkaline phosphatase, tissue-nonspecific isozyme (Homo sapiens, UniProt P05186); experiment: TNAP enzyme activators, dose response, selectivity assay for human IAP activator project, biochemical, TNAP isozyme, human IAP uHTS hits (AID 488886); type: functional;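 also: potency of compounds raising TNAP activity as a selectivity check on IAP activators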
# T3 sequence (P05186 whole entry): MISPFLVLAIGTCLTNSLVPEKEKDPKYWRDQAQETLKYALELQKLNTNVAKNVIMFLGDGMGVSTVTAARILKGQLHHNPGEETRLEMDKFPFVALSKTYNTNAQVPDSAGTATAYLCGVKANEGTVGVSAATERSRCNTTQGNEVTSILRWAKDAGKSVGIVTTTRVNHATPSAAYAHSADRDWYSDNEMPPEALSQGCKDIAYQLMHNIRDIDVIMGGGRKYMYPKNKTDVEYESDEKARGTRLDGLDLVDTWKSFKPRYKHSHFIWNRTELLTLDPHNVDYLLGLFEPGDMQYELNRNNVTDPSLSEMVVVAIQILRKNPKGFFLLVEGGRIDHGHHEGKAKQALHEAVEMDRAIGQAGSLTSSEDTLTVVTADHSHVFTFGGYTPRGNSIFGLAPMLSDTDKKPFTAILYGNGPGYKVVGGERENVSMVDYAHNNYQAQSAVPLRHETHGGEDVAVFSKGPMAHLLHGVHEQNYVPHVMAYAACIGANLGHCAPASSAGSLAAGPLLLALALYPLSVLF
# [4] = biological target: T1, Intestinal-type alkaline phosphatase; experiment: human intestinal alkaline phosphatase activators, dose response, biochemical, luminescence, uHTS hits (AID 463120); type: functional
# [5] = biological target: Intestinal-type alkaline phosphatase (Mus musculus, UniProt P24822); experiment: PubChem AID 488874; type: functional
# Beta-galactosidase [6] = biological target: T4, Beta-galactosidase (Escherichia coli, UniProt Q8VNN2); type: functional
# [7] = cytotoxicity toward NIH3T3 fibroblasts, dose response, counter-screen, cell-based, ATP luminescence, mouse fibroblasts (AID 2010); type: functional;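 also: cells exposed to compound for about 90 hours before reading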
# [8] = biological target: Photoreceptor-specific nuclear receptor (Homo sapiens, UniProt Q9Y5X4); type: functional, cell-based;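 also: CHO-S cells with Gal4-NCOR and VP16-NR2E3 two-hybrid luciferase reporter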
# Beta-galactosidase [9] = biological target: T4, Beta-galactosidase; experiment: beta-galactosidase enzyme inhibitors and activators, dose response, artefact control for CCR6 antagonist project, biochemical, E. coli enzyme, set 3 (AID 504712); type: functional
# [10] = biological target: T5, Delta-type opioid receptor (Homo sapiens, UniProt P41143); experiment: HTS Image-Based Screen for Agonists of the DOR Receptor. [Related pubchem assays (depositor defined):AID1777, AID1786, AID2133]; type: functional
# [11] = inhibitors of intracellular T. cruzi replication, confirmation, NIH3T3 host cells, beta-gal luminescence (AID 2044); type: functional, cell-based;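 also: intracellular parasites grown in NIH/3T3 mouse fibroblasts as host cells; luminescent beta-galactosidase reporter signal from transgenic T. cruzi replicating inside host cells; inhibitors lower the luminescence signal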
# [12] = NIH-3T3 fibroblast cytotoxicity, dose response, cytotoxicity control, cell-based, fluorescence, Alamar Blue, secondary assay (AID 2327); type: functional;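 also: NIH-3T3 mouse fibroblasts cultured with fluconazole at 8 µg/mL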
# [13] = C. albicans growth with fluconazole, confirmation, fluorescence, retest (AID 2467); type: functional, cell-based
# Vero = experiment: cells; type: functional; conditions: Chlorocebus sabaeus
# Streptococcus = experiment: Group A Streptococcus viability loss, dose response, counter-screen for streptokinase expression inhibitor project, luminescence, BacTiterGlo (AID 1915); type: functional, organism-based;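 also: potency for reduction of bacterial viability or growth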
# [14] = biological target: G-protein coupled receptor 55 (Homo sapiens, UniProt Q9Y2T6); experiment: GPR55 antagonists blocking LPI-driven arrestin recruitment, primary screen, imaging, U2OS, beta-arrestin-GFP, LPI agonist (AID 2013); type: functional;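 also: antagonist potency measured as reduced agonist-driven arrestin aggregation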
# [15] = tested on: Streptococcus sp. 'group A'; experiment: growth inhibition of control SK(-) GAS strain, dose response, counter-screen for streptokinase expression inhibitor project, luminescence, kanamycin, BacTiterGlo, confirmation (AID 1900); type: functional, organism-based
# [16] = biological target: T5, Delta-type opioid receptor; experiment: HTS Image-Based Screen for Antagonists of the DOR Receptor. [Related pubchem assays (depositor defined):AID1777, AID1785, AID1786, AID2133]; type: functional
# [17] = biological target: T6, Kappa-type opioid receptor (Homo sapiens, UniProt P41145); type: functional
# [18] = biological target: T6, Kappa-type opioid receptor; type: functional; remark: listed apart in the source
# Mu-type opioid receptor = Mu-type opioid receptor (Homo sapiens, UniProt P35372); experiment: HTS Image-Based Screen for Agonists of the MOR Receptor. [Related pubchem assays (depositor defined):AID1777, AID1785, AID1786, AID2133]; type: functional;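 also: imaging of beta-arrestin GFP recruitment into spots after receptor activation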
# [19] = biological target: Signal transducer and activator of transcription 3 (Homo sapiens, UniProt P40763); experiment: STAT3 inhibitors, late-stage profile, late-stage follow-up, cell-based, STAT1 panel, qPCR, cytotoxicity, panel member STAT3 Inhibition (AID 2078)
# [20] = biological target: T7, Serine/threonine-protein phosphatase (Candida dubliniensis (strain CD36 / CBS 7987 / NCPF 3949 / NRRLY-17841) (Yeast), UniProt B9W6M3); experiment: calcineurin pathway inhibitors in yeast reporter, dose response, S. cerevisiae, CDRE-lacZ, luminescence, secondary (AID 2388); type: functional, cell-based;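 also: yeast reporter cells carrying a calcineurin-responsive lacZ construct stimulated with calcium chloride; luminescent beta-galactosidase reporter signal in whole cells rather than isolated phosphatase activity; potency for inhibition where a drop in reporter signal means calcineurin blockade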
# T7 sequence (B9W6M3 whole entry): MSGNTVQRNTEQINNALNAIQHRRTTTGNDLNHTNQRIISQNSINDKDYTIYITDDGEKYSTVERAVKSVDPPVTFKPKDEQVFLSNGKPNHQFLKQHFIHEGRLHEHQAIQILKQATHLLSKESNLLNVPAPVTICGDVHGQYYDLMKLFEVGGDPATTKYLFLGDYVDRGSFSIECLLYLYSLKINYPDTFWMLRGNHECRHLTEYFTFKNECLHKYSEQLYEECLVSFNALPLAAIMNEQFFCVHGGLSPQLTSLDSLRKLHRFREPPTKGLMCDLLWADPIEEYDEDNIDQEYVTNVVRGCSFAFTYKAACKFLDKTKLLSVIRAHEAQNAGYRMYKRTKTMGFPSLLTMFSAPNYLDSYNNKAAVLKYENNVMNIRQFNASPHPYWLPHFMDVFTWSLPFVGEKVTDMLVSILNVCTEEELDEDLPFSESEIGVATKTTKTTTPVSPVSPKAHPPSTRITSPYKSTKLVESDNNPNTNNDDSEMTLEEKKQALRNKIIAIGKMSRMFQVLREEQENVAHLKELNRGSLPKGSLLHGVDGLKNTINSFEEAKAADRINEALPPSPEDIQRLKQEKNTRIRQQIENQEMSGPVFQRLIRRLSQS
# [21] = Shn3 3'UTR reporter inhibitors, dose response, cell-based, Clone20 osteoblasts, firefly luciferase, cherry-picked (AID 624132); type: functional;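 also: firefly luciferase luminescence from reporter carrying the Shn3 3'UTR in osteoblasts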
# [22] = biological target: ATP-dependent molecular chaperone HSP82 (Candida albicans (strain WO-1) (Yeast), UniProt C4YTQ8); experiment: loss of DOC-induced GRE-beta-galactosidase reporter signal, dose response, Hsp90 inhibitor project, S. cerevisiae, luminescence (AID 2400); type: functional, cell-based;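 also: beta-galactosidase luminescence from glucocorticoid response element reporter as proxy for Hsp90 function; inhibitor potency where signal loss means Hsp90 inhibition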
# HEK293 [23] = experiment: cells; type: functional, cell-based; conditions: Homo sapiens
# [24] = insulin promoter down-regulators in MIN6 cells, imaging, high-content screening, mouse beta cells (AID 1628); type: functional
# HEK293 [25] = experiment: cells; type: functional, cell-based; conditions: Homo sapiens; remark: listed apart in the source
# HEK293 [26] = experiment: NOD2 signaling inhibitors in MDP-stimulated cells, cell-based, uHTS, luminescence (AID 2001); type: functional; conditions: Homo sapiens
# [27] = control 3'UTR Renilla luciferase suppression, dose response, counter-screen for Shn3 inhibitor project, cell-based, Clone20-Shn3RL, cherry-picked (AID 624133); type: functional
# HEK293 [28] = experiment: NOD1 signaling inhibitors, primary screen, cell-based, luminescence, uHTS (AID 1578); type: functional; conditions: Homo sapiens
# [29] = biological target: Signal transducer and activator of transcription 1-alpha/beta (Homo sapiens, UniProt P42224); experiment: STAT3 inhibitors, late-stage profile, late-stage follow-up, cell-based, STAT1 panel, qPCR, cytotoxicity, panel member STAT1 Inhibition (AID 2078)
# [30] = HepG2 cell cytotoxicity, dose response, cytotoxicity control for Shn3 inhibitor project, CellTiter-Glo, cherry-picked (AID 624134); type: functional, cell-based
# [31] = cytotoxicity in MIN6 insulinoma cells, dose response, cytotoxicity control, cell-based, mouse insulinoma (AID 2122); type: functional;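 also: confirmatory high-throughput counterscreen run to flag cytotoxic compounds; mouse MIN-6 beta cells carrying an insulin promoter eGFP reporter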
# HEK293 [32] = experiment: cells; conditions: Homo sapiens
# Tumor necrosis factor = Tumor necrosis factor (Homo sapiens, UniProt P01375); experiment: TNFa-triggered NF-kB activation inhibitors, SAR follow-up, cell-based, revised (AID 2337); type: functional
# Tumor necrosis factor, sequence (P01375 whole entry): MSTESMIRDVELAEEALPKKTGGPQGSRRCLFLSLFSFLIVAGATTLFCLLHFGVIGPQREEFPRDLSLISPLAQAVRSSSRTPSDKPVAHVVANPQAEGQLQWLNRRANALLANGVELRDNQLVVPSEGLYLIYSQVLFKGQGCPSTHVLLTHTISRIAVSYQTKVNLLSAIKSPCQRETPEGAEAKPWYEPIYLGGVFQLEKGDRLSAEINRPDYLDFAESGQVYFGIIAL
# T5 sequence (P41143 whole entry): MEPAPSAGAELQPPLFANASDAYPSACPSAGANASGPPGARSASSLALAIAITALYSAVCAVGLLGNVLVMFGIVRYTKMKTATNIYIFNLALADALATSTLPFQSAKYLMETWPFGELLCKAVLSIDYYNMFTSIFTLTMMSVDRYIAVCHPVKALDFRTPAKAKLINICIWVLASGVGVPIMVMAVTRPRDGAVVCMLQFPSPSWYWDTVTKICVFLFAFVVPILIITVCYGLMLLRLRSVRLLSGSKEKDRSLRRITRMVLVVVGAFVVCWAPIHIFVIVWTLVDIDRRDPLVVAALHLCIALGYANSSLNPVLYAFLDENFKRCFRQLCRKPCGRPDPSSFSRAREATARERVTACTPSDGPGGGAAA
# T4 sequence (Q8VNN2 whole entry): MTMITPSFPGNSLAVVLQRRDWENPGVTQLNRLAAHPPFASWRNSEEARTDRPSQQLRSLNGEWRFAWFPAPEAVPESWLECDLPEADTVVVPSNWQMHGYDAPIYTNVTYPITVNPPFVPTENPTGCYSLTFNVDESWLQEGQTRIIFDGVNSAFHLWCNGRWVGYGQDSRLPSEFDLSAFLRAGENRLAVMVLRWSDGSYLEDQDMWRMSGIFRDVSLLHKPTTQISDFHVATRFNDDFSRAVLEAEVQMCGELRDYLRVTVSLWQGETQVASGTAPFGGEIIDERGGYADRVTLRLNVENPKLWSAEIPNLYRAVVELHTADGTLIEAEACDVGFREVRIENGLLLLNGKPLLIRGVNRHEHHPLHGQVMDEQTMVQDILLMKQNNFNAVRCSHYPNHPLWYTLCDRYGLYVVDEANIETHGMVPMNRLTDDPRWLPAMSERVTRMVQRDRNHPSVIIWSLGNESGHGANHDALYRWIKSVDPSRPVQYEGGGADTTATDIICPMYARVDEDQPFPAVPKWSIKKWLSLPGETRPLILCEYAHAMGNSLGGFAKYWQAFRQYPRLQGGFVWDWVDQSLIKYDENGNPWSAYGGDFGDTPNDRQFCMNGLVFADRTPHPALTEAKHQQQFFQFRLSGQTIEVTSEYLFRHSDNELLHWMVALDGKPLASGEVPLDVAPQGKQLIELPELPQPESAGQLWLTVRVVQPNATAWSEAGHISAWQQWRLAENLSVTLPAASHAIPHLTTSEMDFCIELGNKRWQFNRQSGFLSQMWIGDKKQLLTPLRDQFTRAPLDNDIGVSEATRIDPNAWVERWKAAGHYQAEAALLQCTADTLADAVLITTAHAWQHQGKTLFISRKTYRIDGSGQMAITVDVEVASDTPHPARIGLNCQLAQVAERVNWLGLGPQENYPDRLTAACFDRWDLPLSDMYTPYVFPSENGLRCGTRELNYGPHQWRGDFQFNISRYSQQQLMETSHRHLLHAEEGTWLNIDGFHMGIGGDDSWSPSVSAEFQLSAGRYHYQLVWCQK
# T6 sequence (P41145 whole entry): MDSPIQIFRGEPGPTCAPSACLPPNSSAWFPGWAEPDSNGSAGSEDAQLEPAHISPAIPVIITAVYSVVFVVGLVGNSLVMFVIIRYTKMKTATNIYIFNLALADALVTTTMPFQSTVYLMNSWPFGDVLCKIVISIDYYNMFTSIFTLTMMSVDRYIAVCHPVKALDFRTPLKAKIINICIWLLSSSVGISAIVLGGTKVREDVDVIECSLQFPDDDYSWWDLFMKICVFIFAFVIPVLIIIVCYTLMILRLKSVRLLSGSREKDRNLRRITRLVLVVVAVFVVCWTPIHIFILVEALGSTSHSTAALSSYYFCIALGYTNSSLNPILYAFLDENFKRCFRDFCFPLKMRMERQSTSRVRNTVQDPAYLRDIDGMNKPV
# T1 sequence (P09923 whole entry): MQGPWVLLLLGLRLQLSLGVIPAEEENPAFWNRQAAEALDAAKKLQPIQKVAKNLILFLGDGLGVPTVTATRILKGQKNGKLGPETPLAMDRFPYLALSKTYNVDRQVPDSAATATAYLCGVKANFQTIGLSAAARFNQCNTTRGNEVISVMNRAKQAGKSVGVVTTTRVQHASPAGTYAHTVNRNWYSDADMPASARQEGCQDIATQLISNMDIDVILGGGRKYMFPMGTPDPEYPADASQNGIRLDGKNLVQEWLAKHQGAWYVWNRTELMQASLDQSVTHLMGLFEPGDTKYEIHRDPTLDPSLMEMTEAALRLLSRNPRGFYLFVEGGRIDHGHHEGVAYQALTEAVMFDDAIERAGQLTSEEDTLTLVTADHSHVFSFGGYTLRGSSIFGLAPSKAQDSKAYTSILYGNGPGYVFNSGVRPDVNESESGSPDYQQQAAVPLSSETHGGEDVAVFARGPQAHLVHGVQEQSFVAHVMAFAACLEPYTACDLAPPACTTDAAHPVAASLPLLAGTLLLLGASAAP
# Mu-type opioid receptor, sequence (P35372 whole entry): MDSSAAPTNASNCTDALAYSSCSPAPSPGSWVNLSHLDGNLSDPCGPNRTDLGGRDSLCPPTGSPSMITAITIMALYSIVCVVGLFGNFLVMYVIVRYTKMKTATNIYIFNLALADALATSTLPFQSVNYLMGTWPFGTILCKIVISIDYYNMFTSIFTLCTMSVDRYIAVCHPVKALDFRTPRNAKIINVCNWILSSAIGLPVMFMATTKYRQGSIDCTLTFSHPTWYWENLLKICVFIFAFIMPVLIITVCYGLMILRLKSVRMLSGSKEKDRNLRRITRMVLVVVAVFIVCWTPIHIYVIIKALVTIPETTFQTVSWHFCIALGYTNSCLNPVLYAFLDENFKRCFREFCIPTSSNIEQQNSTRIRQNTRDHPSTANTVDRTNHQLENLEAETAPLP
# Intestinal-type alkaline phosphatase (Mus musculus, UniProt P24822), sequence (P24822 whole entry): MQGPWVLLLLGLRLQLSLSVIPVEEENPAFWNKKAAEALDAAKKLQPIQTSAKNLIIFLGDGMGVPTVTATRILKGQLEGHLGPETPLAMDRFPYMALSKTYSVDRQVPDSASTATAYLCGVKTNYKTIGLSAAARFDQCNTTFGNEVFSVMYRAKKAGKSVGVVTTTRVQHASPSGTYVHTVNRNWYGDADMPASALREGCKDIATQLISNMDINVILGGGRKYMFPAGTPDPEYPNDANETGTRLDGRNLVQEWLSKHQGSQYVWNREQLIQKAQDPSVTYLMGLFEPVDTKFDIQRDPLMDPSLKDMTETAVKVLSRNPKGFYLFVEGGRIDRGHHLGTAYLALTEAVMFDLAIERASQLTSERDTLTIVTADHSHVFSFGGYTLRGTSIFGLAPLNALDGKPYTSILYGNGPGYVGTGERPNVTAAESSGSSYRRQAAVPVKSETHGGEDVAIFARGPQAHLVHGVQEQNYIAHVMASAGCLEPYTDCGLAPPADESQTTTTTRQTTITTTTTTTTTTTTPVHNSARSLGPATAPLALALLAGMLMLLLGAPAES
# Photoreceptor-specific nuclear receptor, sequence (Q9Y5X4 whole entry, the tested form may be a part): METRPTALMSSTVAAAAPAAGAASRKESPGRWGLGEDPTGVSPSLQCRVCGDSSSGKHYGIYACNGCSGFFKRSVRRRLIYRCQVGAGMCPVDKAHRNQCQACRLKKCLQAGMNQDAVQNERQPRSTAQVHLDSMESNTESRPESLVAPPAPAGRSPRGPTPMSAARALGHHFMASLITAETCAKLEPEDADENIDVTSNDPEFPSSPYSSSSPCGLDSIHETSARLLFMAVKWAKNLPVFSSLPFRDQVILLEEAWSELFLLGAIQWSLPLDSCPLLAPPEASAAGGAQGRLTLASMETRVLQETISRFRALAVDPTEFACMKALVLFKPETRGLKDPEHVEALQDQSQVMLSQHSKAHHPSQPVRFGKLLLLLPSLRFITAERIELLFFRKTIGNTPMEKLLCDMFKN
# Signal transducer and activator of transcription 1-alpha/beta, sequence (P42224 whole entry): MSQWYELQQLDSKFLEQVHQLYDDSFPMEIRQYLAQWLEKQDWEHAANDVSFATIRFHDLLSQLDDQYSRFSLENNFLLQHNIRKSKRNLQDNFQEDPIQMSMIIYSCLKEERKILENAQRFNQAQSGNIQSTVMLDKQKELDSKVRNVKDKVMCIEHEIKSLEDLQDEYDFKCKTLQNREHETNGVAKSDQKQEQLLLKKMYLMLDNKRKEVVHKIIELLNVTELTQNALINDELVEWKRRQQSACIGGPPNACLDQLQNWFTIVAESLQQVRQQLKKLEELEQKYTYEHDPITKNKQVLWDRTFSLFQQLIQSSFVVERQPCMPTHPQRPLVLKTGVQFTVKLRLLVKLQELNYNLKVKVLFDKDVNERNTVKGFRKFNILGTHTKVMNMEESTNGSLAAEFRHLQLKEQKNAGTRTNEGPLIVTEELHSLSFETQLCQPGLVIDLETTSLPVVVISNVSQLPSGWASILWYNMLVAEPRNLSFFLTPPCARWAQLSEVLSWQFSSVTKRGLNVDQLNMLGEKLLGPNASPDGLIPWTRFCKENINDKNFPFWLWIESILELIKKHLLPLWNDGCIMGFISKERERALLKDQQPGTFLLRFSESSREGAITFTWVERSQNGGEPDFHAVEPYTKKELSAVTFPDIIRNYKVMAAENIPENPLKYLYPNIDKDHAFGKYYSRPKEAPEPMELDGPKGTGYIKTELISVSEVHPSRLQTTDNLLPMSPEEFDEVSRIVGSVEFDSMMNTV
# G-protein coupled receptor 55, sequence (Q9Y2T6 whole entry): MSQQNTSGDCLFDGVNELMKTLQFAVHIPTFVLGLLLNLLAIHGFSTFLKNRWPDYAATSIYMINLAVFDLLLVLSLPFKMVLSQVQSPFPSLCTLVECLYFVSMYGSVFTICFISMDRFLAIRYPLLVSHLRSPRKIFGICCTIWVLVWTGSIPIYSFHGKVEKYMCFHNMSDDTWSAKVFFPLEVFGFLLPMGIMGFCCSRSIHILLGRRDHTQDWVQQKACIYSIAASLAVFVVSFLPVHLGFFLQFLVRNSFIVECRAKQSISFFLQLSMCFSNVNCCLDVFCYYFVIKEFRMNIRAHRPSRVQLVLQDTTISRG
Compound,EC50 [1],EC50 [3],EC50 [4],IC50 [5],EC50 (Beta-galactosidase [6]),EC50 [10],EC50 [12],EC50 [13],IC50 [16],IC50 [17],IC50 [18],EC50 (Mu-type opioid receptor),also measured
CCn1c(C)nc2cc(C(=O)NNC(=S)Nc3ccccc3)ccc21,15.6 µM (active),15.4 µM (active),10.6 µM (active),50.3 µM (active),,,,,,,,,EC50 [2]: 0.192 µM (active)
Cc1cccc(Cc2cnc(N3C(=N)SC(C)C3=O)s2)c1 (stereo not drawn),,,,,> 31.5 µM (inactive),> 32 µM (inactive),> 160 µM (inconclusive),1.91 µM (active),> 32 µM (inactive),> 32 µM,5.68 µM (active),> 32 µM (inactive),EC50 [7]: > 60 µM (not active); IC50 [8]: 1.87 µM (active); IC50 (Beta-galactosidase [9]): > 66.6 µM (inactive); EC50 [11]: 2.41 µM (active); CC50 (Vero): > 25 µM (active); EC50 (Streptococcus): 7.82 µM (active); IC50 [14]: 0.847 µM (active); EC50 [15]: 0.179 µM (active)
c1ccc(CC2CCN(c3ncnc4sccc34)CC2)cc1,,,,,,,> 160 µM (inconclusive),0.574 µM (active),,,,,IC50 [19]: 1.85 µM (active); EC50 [20]: > 180 µM (inactive); AC50 [21]: 0.362 µM (active); EC50 [22]: 19.5 µM (active); IC50 (HEK293 [23]): > 20 µM (inactive); IC50 [24]: 0.756 µM (active); IC50 (HEK293 [25]): > 20 µM (inactive); IC50 (HEK293 [26]): > 20 µM (inactive); AC50 [27]: 5.88 µM (active); EC50 (HEK293 [28]): > 20 µM (inactive); IC50 [29]: > 55.7 µM (inactive); AC50 [30]: 1.84 µM (active); IC50 [31]: 0.505 µM (active)
CCN(CC)C(CNC(=O)c1cc(=O)[nH]c2ccccc12)c1ccccc1Cl (stereo not drawn),,,,,> 31.5 µM (inactive),> 32 µM (inactive),,,> 32 µM (inactive),14.6 µM,14.9 µM (active),> 32 µM (inactive),
O=C(Nc1ccc(F)cc1)c1ccc(CN2CCc3ccccc32)cc1,,,,,,,,,,,,,IC50 (HEK293 [32]): > 20 µM (inactive); IC50 (Tumor necrosis factor): > 20 µM (inactive)
C[C@@H](NC(=O)c1[nH]cnc1C(=O)Nc1ccon1)c1ccccc1,16.4 µM (active),25.9 µM (active),12 µM (active),39.3 µM (active),,,,,,,,,
